Read-outs that look alike come from different tables or passages of the source.
Tests used:
[1] = test system: human primary hepatocytes; assay: cells; conditions: Hepatocyte
Source text: (§1) We selected hepatocytes as normal cells because hepatocytes are mediate toxicity to multiple drugs and are used as a standard to assess toxicity of drugs in vitro [28]. […] For comparison with the standard of care, doxorubicin was also included in this analysis.

[2] = molecular target: T1, human GSR enzyme (recombinant GSR) (Homo sapiens, UniProt P00390); assay: Glutathione reductase (GSR) activity assay; type: biochemical; conditions: for remaining activity at 30 µM: 2 h at 25°C, read-out: GSR, enzyme residual activity as compared to DMSO-treated sample; for inhibition at 30 µM: read-out: GSR-inhibiting activity
T1 construct: made in house; host or cells: E. coli BL21(DE3)
T1 sequence (P00390 44-522): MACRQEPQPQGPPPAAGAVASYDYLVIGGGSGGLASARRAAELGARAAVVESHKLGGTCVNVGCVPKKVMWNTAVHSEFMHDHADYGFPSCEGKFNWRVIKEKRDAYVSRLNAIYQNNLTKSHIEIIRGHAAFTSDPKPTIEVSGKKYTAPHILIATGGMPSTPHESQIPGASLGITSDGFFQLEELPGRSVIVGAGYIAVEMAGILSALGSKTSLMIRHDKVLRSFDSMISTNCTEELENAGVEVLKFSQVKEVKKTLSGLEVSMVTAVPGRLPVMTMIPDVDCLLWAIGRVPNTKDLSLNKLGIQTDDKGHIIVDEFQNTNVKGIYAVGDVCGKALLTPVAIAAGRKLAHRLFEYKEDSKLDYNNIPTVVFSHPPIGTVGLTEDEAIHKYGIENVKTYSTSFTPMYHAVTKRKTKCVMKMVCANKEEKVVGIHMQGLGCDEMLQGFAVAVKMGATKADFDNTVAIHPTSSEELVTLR
Method: Recombinant GSR (0.5 u/well) in a 96-well plate was incubated in the GSR assay buffer (50 mM potassium phosphate buffer, pH 7.5 supplemented with 1 mM EDTA), 100 μl with and without compound (30 μM) for 2 h at 25°C. At the end of incubation, 100 μl of solution containing NADPH (0.087 mM), oxidized glutathione (GSSG) (0.95 mM) and 1 μl of the reagent that detects ratio of GSSG to reduced glutathione (GSH) (Abcam) were added and the mixture was incubated for an additional 1 h at 25°C. GSR activity was measured by using 490-nm excitation and monitoring fluorescence at 520 nm with a fluorescence plate reader. One unit of GSR activity was defined as the amount of enzyme required to produce 1 μM of GSH in a total reaction volume of 200 μl in 1 minute in the GSR assay buffer containing NADPH (0.087 mM), GSSG (0.95 mM) and 1 μl of GSH/GSSG ratio detection reagent (Abcam).
Next, we evaluated the inhibitory activity of the selected compounds against human GSR enzyme using recombinant GSR and Abcam GSH/GSSG ratio detection reagent (Table 1). Briefly, GSR activity was measured by following oxidized glutathione (GSSG) reduction in the presence of NADPH and expressed as percentage of residual activity with respect to DMSO-treated enzyme. The residual activity of GSR for both the non-toxic and toxic compounds was quite heterogeneous, ranging from 100% (compounds 38) to 3% (compound 32). […] We thus conclude that GSR inhibitory activity alone cannot be used to predict the selective cytotoxicity index.

MIA PaCa-2 cells = assay: Hydrogen peroxide cell-based assay (ROS induction), MIA PaCa-2 cells; conditions: Homo sapiens, hydrogen peroxide level relative to DMSO-treated cells (100%), read-out: ROS increase, % MIA PaCa-2
Method: Cells were incubated for 2 h with either compounds (30 μM) or DMSO in a 96-well plate. After the treatment, 80 μl of cell culture medium was collected and the level of hydrogen peroxide was determined using a Hydrogen Peroxide Cell-Based Assay kit (Cayman).
Cells were incubated with the compounds for 4 h and the level of ROS induction was measured by a hydrogen peroxide cell-based assay kit. Compounds were assayed at a fixed concentration of 30 μM and the measured level of hydrogen peroxide was expressed as percentage in relation to DMSO-treated cells (100%). […] This distinction was more evident for compounds with the highest selective cytotoxicity index. […] We conclude that the selective induction of ROS in cancer cells is required but not sufficient factor for the selective anti-tumor activity.

in vitro = conditions: human
Source text: as §1

[3] = test system: Complex I (bovine heart mitochondria); assay: MitoCheck Complex I activity assay; conditions: 30 μM; for Mito Check I, enzyme residual activity as compared to DMSO-treated sample: bovine heart mitochondria, NADH oxidation
Method: MitoCheck Complex I activity was determined as described in the manual of the manufacturer’s manual (Cayman). Briefly, compounds (30 μM) or DMSO were mixed with the Complex I activity assay buffer that contained bovine heart mitochondria reagent, NADH, and ubiquinone in the presence of KCN to inhibit complex IV activity. The level of Complex I activity was monitored in a kinetic assay of NADH oxidation by measuring a decrease in absorbance at 340 nm. The residual Complex I activity was calculated by dividing the rate of compound wells by the rate of DMSO wells for the linear portion of the curve.
To test possible effects of compounds on ETC, we analyzed the Complex I-mediated NADH oxidation using a MitoCheck Complex I Activity Assay Kit. The level of NADH oxidation was measured by a decrease in absorbance at 340 nm and expressed as percentage of residual activity in relation to DMSO-treated mitochondria (Table 1). […] Complex I activity was estimated by the rate of NADH oxidation which was also affected by NADH/NADPH-dehydrogenase-mediated redox cycling.

[4] = test system: breast carcinoma HCC1187 cells; assay: cells; type: cell-based; conditions: for CC50: Homo sapiens; for Selective cytotoxicity index HCC 1187 ATO: human
Source text: For further analyses, we used compounds that have the selective cytotoxicity index either above 20 (non-toxic compounds) or below 1 (toxic compounds) with the aim to identify targets that are responsible for the selective activity of the identified compounds toward cancer cells. To confirm that the effects of the selected compounds are not only specific to MIA PaCa-2 cells, we evaluated their cytotoxic activities on breast carcinoma HCC1187 cells (Table 1). […] For easy comparison, the data with MIA PaCa-2 cells were also included in Table 1. […] We also noticed that, again with a few exceptions, HCC1187 cells are more resistant to the non-toxic compounds in the presence of ATO as compared to MIA PaCa-2 cells. In contrast, HCC1187 cells are more sensitive to all toxic compounds in the presence of ATO as compared to MIA PaCa-2 cells. The high sensitivity of HCC1187 cells to toxic compounds contributed to the increased selective cytotoxicity index.

[5] = HCC1187, read-out: LC50 HCC1187
[6] = HCC1187, compound alone, unit not given in Table 1, read-out: LC50 HCC1187

Row | Structure (SMILES) | EC50 ([1]; read-out: EC50, μM Hepatocytes) [µM] | remaining activity at 30 µM [2] [%] | activity at 30 µM (MIA PaCa-2 cells) [%] | CC50 (in vitro; primary hepatocytes) [µM] | stimulation of Complex I activity [3] | Mito Check I, enzyme residual activity as compared to DMSO-treated sample [3] [%] | inhibition at 30 µM [2] [%] | CC50 [4, 5] [µM] | Selective cytotoxicity index HCC 1187 ATO [4] | CC50 (in vitro) [µM] | EC50 ([1]; read-out: EC50, toxicity to hepatocytes) [µM] | CC50 [4, 6] [µM] | inhibition of mitochondrial function (Complex I) [3] [%]
1 | O=C1C(Cl)=C(NCCc2ccccc2)C(=O)c2ccccc21 [compound 36] | 8.8 | 42 | 721 | 8.8 | more than 30% | 135 |  |  |  |  |  |  | 
2 | CC1=C(N2CC2)C(=O)c2ccccc2C1=O [compound 55] | > 90 | 83 | 416 |  |  | 72 | 17 | 51.8 | 15.8 | > 90 |  |  | 
3 | COC1=C(N2CC2)C(=O)c2ccccc2C1=O [compound 54] | > 90 | 54 | 675 |  |  | 84 |  | 18.2 | 40.9 |  |  |  | 
4 | CCCCOCCCNC1=C(Cl)C(=O)c2ccccc2C1=O [compound 26] | 4.8 | 66 | 889 | 4.8 |  | 112 |  |  |  |  | 3.6 | 1.7 | 
5 | NC1=C(Cl)C(=O)c2ccccc2C1=O [compound 1, 2-chloro-3-amino-1,4-NQ] | 17 | 33 | 331 | 17 | more than 30% | 145 | 67 |  |  |  |  | 10.8 | 
6 | O=C1C(Cl)=C(Nc2nccs2)C(=O)c2ccccc21 [compound 38] | 26 | 90 | 100 | 26 |  | 105 |  |  |  |  |  | 20.3 | 
7 | CCCCC(=O)NC1=C(Cl)C(=O)c2ccccc2C1=O [compound 32] | 2.2 | 1 | 506 | 2.2 | more than 30% | 135 | 99 |  |  |  |  | 0.3 | 
8 | O=C1C(Cl)=C(Nc2ccccc2)C(=O)c2ccccc21 [compound 39] | 2.3 | 92 |  | 2.3 |  | 91 |  |  |  |  |  | 1.7 | 9
9 | CC1CN1C1=C(Cl)C(=O)c2ccccc2C1=O (stereo not drawn) [compound 16] | 78 | 75 | 637 |  |  | 58 |  | 3.6 | 128.6 | 78 |  |  | 
10 | O=C1C=C(SCCO)C(=O)c2ccccc21 [compound 60] | 3.3 | 38 |  | 3.3 | more than 30% | 212 |  |  |  |  |  | 0.6 | 
11 | COCCNC1=C(Cl)C(=O)c2ccccc2C1=O [compound 21] | 60.4 | 65 | 254 | 60.4 |  | 104 |  |  |  |  |  | 5.2 | 
12 | CCCCCCCNC1=C(Cl)C(=O)c2ccccc2C1=O [compound 8] | 78.6 | 93 | 110 | 78.6 |  | 116 | 7 |  |  |  |  | 56.1 | 
13 | O=C1C(Nc2ccccc2)=CC(=O)c2ncccc21 [compound 67, reference compound] | 17.8 | 53 | 783 | 17.8 |  | 116 |  |  |  |  |  | 3 | 
14 | Cc1ccccc1NC1=C(Cl)C(=O)c2ccccc2C1=O [compound 40] | 24.5 | 72 | 111 | 24.5 |  | 103 |  |  |  |  |  | 9 | 
15 | COC1=C(N(C)C)C(=O)c2ccccc2C1=O [compound 53] | > 90 | 61 | 446 |  |  | 51 |  |  | 9.5 |  |  | > 90 | 
16 | CC(C)(C)NC1=C(Cl)C(=O)c2ccccc2C1=O [compound 13] | 29.9 | 45 | 248 | 29.9 |  | 84 |  |  |  |  |  | 28.7 | 
17 | CCNC1=CC(=O)c2ncccc2C1=O [compound 66] | > 90 | 59 | 626 |  | more than 30% | 158 |  |  |  |  |  | 13.2 | 

From article PMC6433232, “Targeting mitochondria in cancer therapy could provide a basis for the selective anti-cancer activity” (PLoS ONE, 2019)
